These results are taken from US11786476B2, “Oral dosage form” (Universiteit Gent, priority 2016, dated 2023).

For data set [1] the following is noted: literature values; cited from earlier work.
Data set [2] can be described thus: Powder characteristics of raw materials (particle size and geometry). The class given is physicochemical. Particulars: raw material powder; for D90: 90% of particles smaller than this diameter.

Structures are written as SMILES. Structures can show the parent of a compound that is named as a salt.

For the compound `COc1cccc(C2(O)CCCCC2CN(C)C)c1` (stereo not drawn) [tramadol], in data set [1], the aqueous solubility (commonly the dissolved amount per volume that the medium holds) is 30 to 100 mg/mL.
With `CC(=O)Nc1ccc(O)cc1` [Acetaminophen, acetaminophen], in data set [2], the D10 is reported as 1.7 μm, the D50 was 6.4 μm, the Sphericity is on record as 0.84 and the D90 is listed as 20.1 μm.
On to `CN(C)C(=N)N=C(N)N` [Metformin · HCl, metformin hydrochloride], for which, in data set [2], the D10 is 8.4 μm, the D50 worked out at 51.6 μm, the Sphericity is 0.87 and the D90 turned out to be 150.2 μm.
